From PMC5602538, “Assessment of the Drug Interaction Potential of Unconjugated and GalNAc3-Conjugated 2′-MOE-ASOs” (Molecular Therapy. Nucleic Acids, 2017)
{GalNAc3} = trishexylamino-C6 triantennary GalNAc conjugate; e = 2'-O-(2-methoxyethyl) (MOE); d = 2'-deoxy (DNA)

Assays:
[1] = system: T1, BSEP; assay: BSEP substrate study in Sf9 membrane vesicles; type: in vitro ADME; conditions: 10 μM ASO, ATP vs AMP
T1 construct: purchased Life Technologies; host or cells: Sf9 cells (membrane vesicles)
Procedure: The test system included a 96-well flat bottom plate containing a suspension of vesicles and a 96-well glass fiber filtration plate. Transport experiments were initiated with the addition of Mg-ATP (for ATP-dependent BSEP uptake) or AMP (non-ATP-dependent uptake) to appropriate wells. Preparation of the flat-bottom plates included incubation with blocking buffer for 60 min at 37°C with orbital shaking at 120 rpm. After 60 min, the blocking buffer was completely removed and assay uptake buffer solutions were added. For BSEP inhibition studies, solutions contained 1 μM [^3H]-taurocholic acid as a substrate and either assay vehicle, test article (at 100 μM), or reference inhibitor (300 μM rifampicin). For BSEP substrate studies, solutions contained either 1 μM [^3H]-taurocholic acid or 10 μM test article. Vesicles were added to assay plates and incubated at 37°C with orbital shaking at 120 rpm for 15 min. To initiate the assay, either Mg-ATP or AMP was added to test wells at a final concentration of 5 mM. Plates were incubated at 37°C with orbital shaking at 120 rpm for 15 min. A glass fiber filtration plate was incubated with blocking buffer for 2 min. Vacuum was then applied to remove the blocking buffer, and ice-cold wash buffer was added to the filtration plate. Vesicular transport was quenched by adding ice-cold wash buffer. Assay samples were then mixed as diluted in wash buffer and 175 μL was transferred into the 96-well glass fiber filtration plate to separate vesicles. […] These samples were counted using a 1450 Microbeta (Perkin-Elmer). […] The test article was quantitated by LC-MS. […]
Signal to noise for the BSEP probe substrate was calculated by dividing the uptake of the probe substrate in BSEP-expressing vesicles in the presence of ATP by the uptake of the BSEP substrate in the vesicles in the presence of AMP. Percent inhibition in the presence of the test article or the reference inhibitors was calculated as: %inhibition=100−(100×(ATP−dependent,transportor−mediatedaccumulation)withinhibitor/(ATP−dependent,transportor−mediatedaccumulation)withoutinhibitor).

[2] = system: OAT1, OAT3, OCT1, OCT2, OATP1B1, OATP1B3, BCRP, P-gp, and BSEP; assay: Inhibition studies of major SLC and ABC transporters, all transporters evaluated; type: in vitro ADME; conditions: 100 μM ASO
Procedure: A 96-well cell culture plate containing a monolayer of MDCK-II cells grown on a permeable support and a corresponding receiver tray was used. The basolateral compartment of the culture plate and wells were washed with warm HBSS three times, with wells of the culture plate serving as the apical compartment. The wash was aspirated by adding 150 μL of 37°C HBSS to both compartments. Plates were incubated at 37°C with orbital shaking at 60 rpm for 15 min for OAT1, OAT3, OCT1, OCT2, OATP1B1, and OATP1B3 (±5 min). The pre-incubation buffer from both compartments was aspirated and 150 μL of the following was added to the basal compartment. For the probe substrate transport assay, HBSS in each well contained one of following probe substrates (positive control for transport), OCT1, 2 μM [^3H]-MPP^+; OCT2, 10 μM [^14C]-metformin; OAT1, 2 μM [^3H]-p-aminohippurate; OAT3, 10 μM [^3H]-p-aminohippurate; OATP1B1, 2 μM [^3H]-estradiol-17 β-D-glucuronide; and OATP1B3, 2 μM [^3H]-cholecystokinin octapeptide (CCK-8). […] Inhibition studies contained HBSS in each well, the probe substrate, and 100 μM of each test article, whereas substrate studies contained HBSS in each well and 10 μM of each test article. Plates were incubated at 37°C with orbital shaking at 60 rpm for 5 min. Both sides of the permeable support were washed four times with ice-cold PBS and 60 μL of cell extraction solution was added to each well. Plates were agitated for 15 min at 120 rpm, after which a 30-μL sample of the extract was collected. Samples containing probe substrate were added to 200 μL of scintillation fluid and counted on a 1450 Microbeta (PerkinElmer), whereas samples containing the test article were kept frozen. Test article concentrations, including control samples, were evaluated by an LC-MS method.
MDCK-MDR1 cells and MDCK-II cells transfected with BCRP were washed with HBSS at 37°C. Wells of the culture plate served as the apical compartment, and 150 μL of HBSS solutions was added to the apical wells. […]

Substance: ISIS 304801: 20-mer (5-10-5) 2′-MOE gapmer PS backbone antisense inhibitor of apoC-III, sequence AGCTTCTTGTCCAGCTTTAT (sugars from the 5' end e5 d10 e5, all phosphorothioate, methylation of C not given here)
- BSEP-mediated uptake relative to corresponding controls [1]: < 2 fold
- Inhibitor of BCRP, P-gp, OAT1, OAT3, OCT1, OCT2, OATP1B1, OATP1B3, or BSEP (conclusion) [2]: not considered inhibitors

Substance: ISIS 420915: 20-mer 2′-MOE gapmer PS backbone antisense inhibitor of transthyretin, sequence TCTTGGTTACATGAAATCCC (all phosphorothioate, sugars by position and methylation of C not given here; 2'-MOE gapmer)
- BSEP-mediated uptake relative to corresponding controls [1]: < 2 fold
- Inhibitor of BCRP, P-gp, OAT1, OAT3, OCT1, OCT2, OATP1B1, OATP1B3, or BSEP (conclusion) [2]: not considered inhibitors

Substance: ISIS 681257: 20-mer 2′-MOE gapmer PS/PO mixed backbone ASO conjugated to 5′-trishexylamino GalNAc3, targets Lp(a), sequence TGCTCCGTTGGTGCTTGTTC (5' {GalNAc3}, sugars by position and backbone not given here; 2'-MOE gapmer with mixed PS/PO backbone)
- BSEP-mediated uptake relative to corresponding controls [1]: < 2 fold
- Inhibitor of BCRP, P-gp, OAT1, OAT3, OCT1, OCT2, OATP1B1, OATP1B3, or BSEP (conclusion) [2]: not considered inhibitors
